For data set [1], the target named is T1, NCS-1 (Homo sapiens, UniProt P62166).
T1 construct: His tag (TEV-cleavable) (N, cleaved yes); made in house; host or cells: Escherichia coli BL21(DE3)
The data set can be described thus: Isothermal titration calorimetry, NCS-1 titrated into PQIQ peptide. It counts as binding. The note with it: 100 μM PQIQ in cell, 1 mM NCS-1 in syringe, 25 °C, pH 7.5; complex aggregates. The procedure: The peptide used corresponds to residues 1903–1929 of the human P/Q receptor. The synthetic P/Q peptide, […] (hereafter termed the PQIQ peptide), was purchased from GenicBio. The peptide was delivered >95% pure.
Expression was induced overnight at 18 °C; cells were harvested, resuspended into lysis buffer [50 mM Tris-HCl (pH 7.5), 200 mM NaCl, 5 mM CaCl2, and Complete EDTA Free Protease Inhibitor (Roche Applied Science)], lysed, centrifuged, filtered, and loaded onto the Hiprep 16/10 Phenyl FF High Sub (GE Healthcare) column that was pre-equilibrated with buffer A [50 mM Tris-HCl (pH 7.5), 200 mM NaCl, and 5 mM CaCl2]. The column was extensively washed with buffer A and NCS-1 eluted using Milli-Q water. […] The purity of the sample was assessed by sodium dodecyl sulfate–polyacrylamide gel electrophoresis (SDS–PAGE) and deemed to be >95% pure. The eluted peak was concentrated and stored at −80 °C.
(§1) ITC experiments were performed using a MicroCal ITC200 instrument. […] If necessary, minor adjustments were made to the pH of the peptide solution. […] One injection of 0.2 μL, followed by 20 injections of 2 μL, was made with a 180 s spacing to allow the baseline to return after each injection. All experiments were performed in triplicate. The data were analyzed with a one-site (three-parameter) curve fitting conducted using the MicroCal-supported ITC module within Origin version 7.
(In general: ITC needs no label: the signal is the heat of the interaction.)

The nature of data set [2]: Solubility / aggregation observed in ITC experiments. The note with it: limits use of peptide as titrant in ITC; 50 mM Tris (pH 7.5), 50 mM NaCl, 5 mM CaCl2. It counts as physicochemical. Here is the method:
as §1

No end group written: not given here.

T1 sequence (P62166 whole entry, species assumed): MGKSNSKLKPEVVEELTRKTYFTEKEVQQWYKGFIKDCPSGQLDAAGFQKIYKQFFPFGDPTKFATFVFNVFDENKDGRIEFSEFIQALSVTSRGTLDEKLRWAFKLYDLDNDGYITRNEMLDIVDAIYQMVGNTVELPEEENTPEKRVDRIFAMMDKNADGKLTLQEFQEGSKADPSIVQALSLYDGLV

As to “TVGKIYAAMMIMEYYRQSKAKKLQAMR [PQIQ peptide]”, the equilibrium binding constant entry in data set [1] is given as “not possible to obtain reliable equilibrium binding constants”. Besides, the solubility entry in data set [2] was “limitations in PQIQ peptide solubility”.

The values are drawn from publication PMC4180279 (Biochemistry, 2014).
